Laboratory results from patent US9963466B2, “Substituted 5-membered heterocyclic analogs as protease activated receptor 4 (PAR-4) antagonists” (Vanderbilt University, priority 2016, dated 2018).
Bridge positions count the residues as written; N and C are the ends. Square brackets hold non-standard residues; d marks the D form. Ends that are not written are not given here. Peptide text beside a SMILES is read from it. * marks the point of attachment. Palmitoyl = CCCCCCCCCCCCCCCC(=O)*; hArg = N=C(N)NCCCC[C@H](N)C(=O)O; Mpa = O=C(O)CCS

Key:
PAR4 [1] = biological target: T1, PAR4 (Homo sapiens, UniProt Q96RI0); experiment: PAC-1 binding assay, platelets stimulated with γ-thrombin; assay type: cell-based; conditions: stimulation with 316 nM γ-thrombin; compound concentration not given
T1 construct: 60 μL of washed platelets (Tyrodes buffer containing 0.1% BSA); endogenous in cells; host or cells: washed platelets
T1 sequence (Q96RI0 18-385): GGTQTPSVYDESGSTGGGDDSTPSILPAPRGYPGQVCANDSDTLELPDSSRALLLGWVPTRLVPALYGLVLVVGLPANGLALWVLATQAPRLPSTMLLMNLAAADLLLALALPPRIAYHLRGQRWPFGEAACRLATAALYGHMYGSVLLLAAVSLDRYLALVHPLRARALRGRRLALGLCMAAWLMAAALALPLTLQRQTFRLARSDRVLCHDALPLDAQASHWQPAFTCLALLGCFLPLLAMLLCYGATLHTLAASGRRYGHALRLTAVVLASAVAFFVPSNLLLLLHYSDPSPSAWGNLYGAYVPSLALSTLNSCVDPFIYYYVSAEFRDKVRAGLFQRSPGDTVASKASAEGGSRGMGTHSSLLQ
Text: Gamma-thrombin is a proteolytic product of alpha-thrombin cleavage by a serine protease. Cleavage results in the disruption of exosite I which interacts directly with the hirudin-like domain of its primary substrates fibrinogen and protease-activated receptor 1 (PAR1). As a result, gamma-thrombin selectively cleaves PAR4 in the nanomolar range, leaving PAR1 intact. See Soslau, G., Class, R., Morgan, D. A., Foster, C., Lord, S. T., Marchese, P., and Ruggeri, Z. M. (2001) Unique pathway of thrombin-induced platelet aggregation mediated by glycoprotein Ib, The Journal of biological chemistry 276, 21173-21183. Gamma-thrombin (Enzyme Research Laboratories, South Bend, Ind.) is produced by trypsin-sepharose cleavage of alpha-thrombin. To neutralize alpha-thrombin contamination, stock solutions of gamma-thrombin are preincubated with 1 unit/mL hirudin prior 100 fold dilution into the sample for platelet stimulation. This concentration of hirudin is capable of abolishing alpha-thrombin activity with no effect on the activity of gamma-thrombin. See Soslau, G., Goldenberg, S. J., Class, R., and Jameson, B. (2004) Differential activation and inhibition of human platelet thrombin receptors by structurally distinct alpha-, beta- and gamma-thrombin, Platelets 15, 155-166. Single point screens and concentration response curves are conducted with 316 nanomolar or 100 nanomolar gamma-thrombin using PAC1 and CD61p binding.
(§1) PAC-1 Binding assay: 60 μL of washed platelets (Tyrodes buffer containing 0.1% BSA) at a concentration of 0.15×10^8 platelets/mL were added to 5 mL round bottom polystyrene tubes (BD, Franklin Lakes, N.J.). FITC conjugated PAC-1 (BD Biosciences, San Jose, Calif.) antibody was diluted (to the manufacturers recommended concentration) in Tyrode's buffer containing 0.1% BSA. 40 μL of diluted antibody was added to the platelets and allowed to incubate for 5 minutes. Platelets were pre-treated with indicated concentrations of antagonist or DMSO control for 5 minutes followed by addition of PAR-1-AP (GL Biochem, Shanghai, China) or PAR-4-AP for 10 minutes. Platelet activity was quenched by the addition ice cold 1.5% paraformaldehyde followed by dilution in 1× phosphate buffered saline. The final DMSO concentration was 0.5%. Platelets were stored up to 18 hours at 4° C. before flow cytometric analysis. Analysis was carried out on a BD FACS Canto II (Franklin Lakes, N.J.). Fluorescent intensity was determined for 100,000 events within the platelet gate. Data was collected and analyzed via FACS DiVa software. Flow cytometric data analysis was conducted by the following method. The DMSO-vehicle treated control was subtracted from each data point. 100% response for PAR-4-AP was determined for each individual as the DMSO treated control stimulated with either 200 μM PAR-4-AP, or 20 μM PAR-1-AP. Data was plotted in GraphPad PRISM v.5.0. For compounds with a notable reduction in PAC-1 binding response, a dose response curves and subsequent IC50 values were generated using the inhibitory sigmoidal dose response ‘variable slope’ parameter. PAR-4 results were plotted as mean±SEM.

PAR4 [2] = biological target: T1, PAR4; experiment: PAC-1 binding assay, washed platelets stimulated with PAR-4-AP (flow cytometry); assay type: cell-based; conditions: PAR-4-AP stimulation, dose response curve
Experimental: as §1

influenza viruses = conditions: mice treated with GPIIbIIIa antagonist; cited from earlier work
[3] = biological target: T2, protease-activated receptor type 4 (PAR4) (Homo sapiens, UniProt Q96RI0); conditions: abstract of Lee et al. 2001; cited from earlier work
T2 construct: host or cells: platelets
T2 sequence (Q96RI0 18-385): T1 sequence (Q96RI0 18-385)

PAR1 [4] = biological target: T3, PAR1 (Homo sapiens, UniProt P25116); conditions: cited from earlier work
T3 construct: host or cells: patients, in vivo
T3 sequence (P25116 22-425): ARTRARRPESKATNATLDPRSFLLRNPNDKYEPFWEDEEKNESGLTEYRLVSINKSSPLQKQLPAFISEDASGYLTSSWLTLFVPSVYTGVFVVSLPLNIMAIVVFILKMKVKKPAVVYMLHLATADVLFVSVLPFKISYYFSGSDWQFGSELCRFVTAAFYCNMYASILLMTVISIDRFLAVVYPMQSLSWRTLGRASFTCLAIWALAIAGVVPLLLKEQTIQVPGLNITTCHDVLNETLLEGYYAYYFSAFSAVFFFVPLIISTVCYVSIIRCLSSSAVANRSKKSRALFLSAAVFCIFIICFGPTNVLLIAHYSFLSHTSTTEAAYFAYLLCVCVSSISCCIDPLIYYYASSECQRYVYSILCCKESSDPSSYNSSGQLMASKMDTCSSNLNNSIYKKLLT

PAR1 [5] = biological target: T3, PAR1; conditions: cited from earlier work; remark: listed apart in the source
PAR4 [6] = biological target: T4, PAR4 (Rattus norvegicus, UniProt Q920E0); conditions: rat myocardial ischemia/reperfusion; cited from earlier work
T4 construct: host or cells: rat, in vivo
T4 sequence (Q920E0 17-395): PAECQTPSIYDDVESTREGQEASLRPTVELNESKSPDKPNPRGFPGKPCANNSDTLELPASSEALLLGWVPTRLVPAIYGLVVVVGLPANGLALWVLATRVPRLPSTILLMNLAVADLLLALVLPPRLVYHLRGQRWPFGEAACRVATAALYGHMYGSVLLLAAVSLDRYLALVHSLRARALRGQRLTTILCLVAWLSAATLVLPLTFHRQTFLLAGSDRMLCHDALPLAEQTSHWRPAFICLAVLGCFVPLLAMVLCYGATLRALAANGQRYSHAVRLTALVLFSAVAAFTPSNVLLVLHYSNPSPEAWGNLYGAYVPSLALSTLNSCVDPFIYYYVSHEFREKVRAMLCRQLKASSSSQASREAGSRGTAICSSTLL

PAR4 [7] = biological target: T5, PAR4 (Mus musculus, UniProt O88634); conditions: cited from earlier work
T5 construct: PAR4-AP, or Trypsin injected pleural cavities of mice; host or cells: mouse, in vivo
T5 sequence (O88634 17-396): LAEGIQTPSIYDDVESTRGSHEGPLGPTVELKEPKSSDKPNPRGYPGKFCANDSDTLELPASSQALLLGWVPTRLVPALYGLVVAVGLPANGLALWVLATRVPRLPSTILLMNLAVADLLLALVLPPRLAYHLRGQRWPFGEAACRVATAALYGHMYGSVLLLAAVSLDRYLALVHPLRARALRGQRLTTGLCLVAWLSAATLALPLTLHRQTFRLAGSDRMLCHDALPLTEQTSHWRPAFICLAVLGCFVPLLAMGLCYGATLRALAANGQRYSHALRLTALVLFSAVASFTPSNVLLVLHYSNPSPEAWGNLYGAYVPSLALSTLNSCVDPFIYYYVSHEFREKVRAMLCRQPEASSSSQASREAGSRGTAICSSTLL

PAR4 [8] = biological target: T4, PAR4; conditions: rat hindpaw, carrageenan; cited from earlier work
[9] = non-ST-segment ACS patients undergoing CABG
[10] = non-ST-segment elevation ACS patients
[11] = patients with myocardial infarction, added to standard anti-platelet therapy
[12] = patients with peripheral artery disease
[13] = patients with prior ischemic stroke, added to standard of care

COc1nn2cc(-c3c(-c4ccccc4)noc3C)nc2s1 [Example B4]
γ-thrombin % Max PAC-1 binding (316 nM) (PAR4 [1]): 93%

COc1nn2cc(-c3ccc(-c4ccccc4)s3)nc2s1 [Example B8, 2-Methoxy-6-(5-phenylthiophen-2-yl)imidazo[2,1-b][1,3,4]thiadiazole]
γ-thrombin % Max PAC-1 binding (316 nM) (PAR4 [1]): 78%
IC50 (PAR4 [2]): 7.46 nM

N=C(N)NCCCC[C@@H]1NC(=O)CCSSC[C@@H](C(N)=O)NC(=O)[C@@H]2CCCN2C(=O)[C@H](Cc2c[nH]c3ccccc23)NC(=O)[C@H](CC(=O)O)NC(=O)CNC1=O [eptifibatide] ([Mpa][hArg]GDWPC-NH2; disulfide 1-7)
protection from death caused by influenza viruses (influenza viruses): had the same effect

CCOC(=O)c1ccc(-c2nn(Cc3ccccc3)c3ccccc23)cc1
inhibition of PAR4-dependent platelet activation [3]: selective and potent inhibitor

CCOC(=O)N[C@@H]1CC[C@@H]2[C@@H](C1)C[C@H]1C(=O)O[C@H](C)[C@H]1[C@H]2/C=C/c1ccc(-c2cccc(F)c2)cn1 [Vorapaxar]
ischemic events (PAR1 [4]; [9]): significant reduction
major CABG-related bleeding (PAR1 [4]; [9]): no significant increase
primary composite endpoint (PAR1 [4]; [10]): did not significantly reduce
risk of major bleeding, including intracranial hemorrhage (PAR1 [4]; [10]): significant increase
moderate to severe bleeding (PAR1 [5]; [11]): significant increase
risk of cardiovascular death or ischaemic events (PAR1 [5]; [11]): reduced the risk
limb ischemia and peripheral revascularization (PAR1 [5]; [12]): significant beneficial effects
risk of bleeding (PAR1 [5]; [12]): increased risk of bleeding
major vascular events (PAR1 [5]; [13]): without improvement
risk of intracranial hemorrhage (PAR1 [5]; [13]): increased the risk

COc1nn2cc(-c3cnn(-c4ccccc4)c3C)nc2s1 [Example B5]
γ-thrombin % Max PAC-1 binding (316 nM) (PAR4 [1]): 95%
IC50 (PAR4 [2]): 1530 nM

trans-cinnamoyl-YPGKF [tcY-NH2]
infarct size (PAR4 [6]): reduced infarct size
neutrophil migration (PAR4 [7]; CXCL8, carrageenan, PAR4-AP or Trypsin injected pleural cavities of mice): inhibit neutrophil migration
eosinophil recruitment (PAR4 [7]; after intrapleural injection of Eotaxin-1): blocks eosinophil recruitment

COc1nn2cc(-c3cc(-c4ccc(Cl)cc4)no3)nc2s1 [Example B2]
γ-thrombin % Max PAC-1 binding (316 nM) (PAR4 [1]): 94%
IC50 (PAR4 [2]): 1930 nM

palmitoly-SGRRYGHALR (Palmitoyl-SGRRYGHALR) [palmitoylated peptide named beside P4pal-10 in the carrageenan model]
edema and granulocyte recruitment (PAR4 [8]): reduced edema and granulocyte recruitment

COc1nn2cc(-c3nccs3)nc2s1 [Example B7]
γ-thrombin % Max PAC-1 binding (316 nM) (PAR4 [1]): 98%

COc1nn2cc(-c3csc4ccccc34)nc2s1 [Example B3]
γ-thrombin % Max PAC-1 binding (316 nM) (PAR4 [1]): 99%
IC50 (PAR4 [2]): 458 nM

COC(=O)c1[nH]c2ccc(OC(F)(F)F)cc2c1-c1cn2nc(OC)sc2n1 [Example B1, Methyl 3-(2-methoxyimidazo[2,1-b][1,3,4]thiadiazol-6-yl)-5-(trifluoromethoxy)-1H-indole-2-carboxylate]
γ-thrombin % Max PAC-1 binding (316 nM) (PAR4 [1]): 100%
IC50 (PAR4 [2]): 2110 nM

COc1nn2cc(-c3sc(-c4ccccc4)nc3C)nc2s1 [Example B6]
γ-thrombin % Max PAC-1 binding (316 nM) (PAR4 [1]): 92%
IC50 (PAR4 [2]): 69.8 nM
